According to patent US10736865B2, “Pharmaceutical formulations comprising 9-cis-retinyl esters in a lipid vehicle” (RETINAGENIX THERAPEUTICS, INC., priority 2009, dated 2020):

Legend:
Rpe65^−/− mice [1] = details: mouse, in vivo
Method: (§3) Briefly, mice first were dark-adapted overnight prior to recording. Then under a safety light, mice were anesthetized by intraperitoneal injection of 20 μl/g body weight of 6 mg/ml ketamine and 0.44 mg/ml xylazine diluted with 10 mM sodium phosphate, pH 7.2, containing 100 mM NaCl. Pupils were dilated with 1% tropicamide. A contact lens electrode was placed on the eye and a reference electrode and ground electrode were positioned on the ear and tail, respectively. ERGs were recorded with the universal testing and electrophysiologic system (UTAS) E-3000 (LKC Technologies, Inc.).
(§4) Single-flash recording—White light flash stimuli were employed with a range of intensities (from −3.7 to 2.8 log cd·s·m^·2), and flash durations were adjusted according to intensity (from 20 μs to 1 ms). Two to five recordings were made at sufficient intervals between flash stimuli (from 10 s to 10 min) to allow mice to recover. Typically, four to eight animals were used for recording each point. The one-way ANOVA test was used for statistical analysis of responses.
Rpe65^−/− mice were split into two groups (an intermittent group and a daily group), each treated for a total of 8 weeks with 1 or 4 mg/kg of 9-cis-R-Ac. […] ERGs were recorded at day 28 and again at day 56, after which tissues were collected for retinoid analyses of the eye and liver and histology of the eye.

Rpe65^−/− mice [2] = details: mouse, in vivo; remark: listed apart in the source
Method: (§5) Electroretinogram (ERG)—ERGs were recorded on anesthetized mice as described in, e.g., Maeda A, et al. Role of photoreceptor-specific retinol dehydrogenase in the retinoid cycle in vivo.
as §3, §4
To test this directly, 5-week-old Rpe65^−/− mice were gavaged daily with 9-cis-R-Ac in soybean oil at doses of 1, 4, or 12.5 mg/kg for 14 days. […]

[3] = Retinoid levels in eyes after single doses of 9-cis-R-Ac; type: in vivo, Rpe65^−/− mice
Method: (§1) Analyses of Retinoic Acid and Non-polar Retinoids—All experimental procedures related to extraction, retinoid derivatization and separation of retinoids were done under dim red light provided by a Kodak No. 1 safelight filter (transmittance>560 nm). Retinoic acid extraction from liver was performed as formerly described in, e.g., Batten M L. et al. supra. Analyses of polar retinoids in plasma, eye and liver were performed with an Agilent 1100 HPLC and two tandem normal phase columns: a Varian Microsorb Silica 3 μm, 4.6×100 mm (Varian, Palo Alto, Calif.) and an Ultrasphere-Si, 5 μm, 4.6×250 mm column (Aleman T S, et al. supra). An isocratic normal phase system of hexane: 2-propanol:glacial acetic acid (1000:4.3:[…]; v/v/v) was used for elution at a flow rate of 1 ml/min at 20° C. with detection at 355 nm. Calibration was done with standards of all-trans-retinoic acid and 9-cis-retinoic acid purchased from Sigma-Aldrich. Analyses of non-polar retinoids in plasma, eye and liver were carried out by normal phase HPLC (Ultrasphere-Si, 5 μm, 4.6×250 mm, Beckman, Fullerton, Calif.) with 10% ethyl acetate and 90% hexane at a flow rate of 1.4 ml/min with detection at 325 nm by an HP1100 HPLC with a diode array detector and HP Chemstation A.03.03 software.

Rpe65^−/− mice [4] = details: mouse, in vivo; remark: listed apart in the source
Method: as §5, §3
(§6) Single-flash recording—White light flash stimuli were employed with a range of intensities (from −3.7 to 2.8 log cd·s·m^·2), and flash durations were adjusted according to intensity (from 20 μs to 1 ms). Two to five recordings were made at sufficient intervals between flash stimuli (from 10 s to 10 min) to allow mice to recover. Typically, four to eight animals were used for recording each point. The one-way ANOVA test was used for statistical analysis of responses. […]

[5] = Clinical side effects after single doses of 9-cis-R-Ac; type: in vivo, Rpe65^−/− mice; details: single doses up to 50 mg/kg in soybean oil
Method: Single doses (2-50 mg/kg) of 9-cis-R-Ac in soybean oil were administered to 5-week-old Rpr65Rpe65^−/− mice to test whether the pre-prodrug 9-cis-R-Ac was capable of delivering artificial chromophore to the eye.
(§7) Following dark-adaption for 3 days post-gavage, scotopic single flash ERGs were recorded and eyes were collected to assess 9-cis-retinal levels.

Rpe65^−/− mice [6] = assay: Retinal histology after intermittent and daily administration for 8 weeks; type: in vivo; details: for Retinal cross-section morphology: 8 weeks
Excerpt: Histology and Immunohistochemistry—Histological procedures employed for the eye analyses as described in Maeda A, et al. supra.
(§2) The dosing regimens are illustrated in FIG. 7.

Rpe65^−/− mice [7] = details: mouse, in vivo; remark: listed apart in the source
Method: as §5, §3, §6, §7

[8] = Retinoid analyses of eye and liver after 8-week regimens; type: in vivo, Rpe65^−/− mice; details: 8-week intermittent and daily regimens
Method: as §1, §2

[9] = Retinoid levels in eyes and liver after 14 days of daily dosing; type: in vivo, Rpe65^−/− and C57Bl/6 mice
Method: as §1

[10] = 9-cis-retinal levels in the eye after 3 daily doses; type: in vivo, Rpe65^−/− mice
Method: as §1

[11] = Plasma retention of 9-cis-retinyl acetate metabolites after single gastric gavage; type: in vivo, C57/Bl6 mice; details: for Absorption (plasma levels of fatty acid 9-cis-retinyl esters and 9-cis-retinol): compared to canola and rapeseed oils, 50 mg/kg gavage
Method: as §1
Several different oil-based preparations were prepared to test the absorption levels of 9-cis-R-Ac in plasma. More specifically, a single 50 mg/kg dose of 9-cis-retinyl acetate (50 mg/kg) suspended in 4 different vehicle oils was administrated by gastric gavage to 5-week-old C57/Bl6 mice and retinoid levels were determined in the plasma thereafter (n=5 for each time point per group).

CC(=O)OC/C=C(C)/C=C/C=C(C)\C=C\C1=C(C)CCCC1(C)C [9-cis-R-Ac, 9-cis-retinyl acetate]
Dose sufficient for significant improvement in ERG responses over control (Rpe65^−/− mice [1]): 1 mg/kg
Lowest daily test dose evoking significant improvement in retinal function (Rpe65^−/− mice [2]): 1 mg/kg
9-cis-retinol in eyes ([3]; single dose 50 mg/kg): 43 pmol/eye
11-cis-retinoids in eyes ([3]; single doses): No 11-cis-retinoids were detected
9-cis-retinal in the eye ([3]; single doses 2 and 4 mg/kg): trace levels
Fatty acid 9-cis-retinyl esters in eyes ([3]; single doses, all analyzed eyes): No fatty acid 9-cis-retinyl esters were detected
Duration of positive ERG effect after treatment (Rpe65^−/− mice [4]): 4 to 6 days
Clinical side effects [5]: no obvious clinical side effects
Retinal cross-section morphology (Rpe65^−/− mice [6]; 1 mg/kg by either schedule, vs control mice): no significant change
Retinal cross-section morphology (Rpe65^−/− mice [6]; 4 mg/kg daily or 4 mg/kg intermittent): improvement of rod outer segment (ROS) morphology
Effect on retina (photoreceptor outer segment lengths, nuclei in outer nuclear layer) (Rpe65^−/− mice [6]; 8-week administration): dose-dependent protective effect
ERG effect of lower doses (Rpe65^−/− mice [7]): positive ERG effects
Lowest tested dose that provided significant ERG improvement (Rpe65^−/− mice [7]): 6.25 mg/kg
9-cis-retinal in the eyes [8]: detected in a dose-dependent manner
9-cis-retinal in eyes ([9]; 1 mg/kg daily for 14 days): No 9-cis-retinal was detected
9-cis-retinal in eyes ([9]; 4 mg/kg daily for 14 days): 38 ± 4 pmol
9-cis-retinal in eyes ([9]; 12.5 mg/kg daily for 14 days): 95 ± 14 pmol
Fatty acid 9-cis-retinyl esters in eyes ([9]; 4 and 12.5 mg/kg/day groups, 14 days): 1 pmol/eye
Fatty acid 9-cis-retinyl esters in livers ([9]; daily dosing 14 days, C57Bl/6 and Rpe65^−/− mice): accumulate in a dose-dependent manner
all-trans-retinol and 9-cis-retinol in eyes ([9]; daily dosing 14 days, any group): Neither all-trans-retinol nor 9-cis-retinol was found
9-cis-retinal in the retinas ([10]; day 4, all treated mice (1, 4, 12.5 mg/kg/day for 3 days)): detected
9-cis-retinal in the retinas ([10]; day 9, after 3 daily doses): No 9-cis-retinal was found
Plasma levels of all-trans-retinol and fatty acid all-trans-retinyl esters ([11]; among the test vehicles and during the 23 h test period): did not differ significantly
Absorption (plasma levels of fatty acid 9-cis-retinyl esters and 9-cis-retinol) ([11]; in soybean oil): best absorption
Absorption (plasma levels of fatty acid 9-cis-retinyl esters and 9-cis-retinol) ([11]; in sunflower oil): best absorption
Time of highest plasma levels of 9-cis-retinoids ([11]; single 50 mg/kg gastric gavage, C57/Bl6 mice): 3 h
